In experiment [1] the test system is hTERT RPE-1, HCT-116 and A2780 cell lines. Put plainly: Viability analysis (CellTiter 96 Assay). The class given is cell-based. Particulars: Homo sapiens, 72 h, A2780 and HCT-116 cells, 3 d, 1–1000 nmol/l, read-out: IC50 for killing of cells (viability). The method, then: RPE, a telomerase-immortalized cell line derived from retinal pigment epithelium, served as the non-cancer control. Antitubulin agents colchicine and nocodazole were used as controls for drug activity. The RPE, A2780, and HCT-116 cells were efficiently killed by compound A8 and the control drugs.
Viability analysis in the presence of antitubulin drugs was performed on hTERT RPE-1 (ATCC), HCT-116 (ATCC), and A2780 (EACC) cell lines. Cell lines were authenticated by PCR [22]. Absence of eight commonly encountered mycoplasma species was confirmed by PCR [23]. Experiments were performed with freshly thawed cells, which were seeded in 96-well MICROTEST tissue culture plates (Falcon) at ∼500 cells/well and grown at 37°C. After 6 h, nocodazole, colchicine or compound A8 were added (1–1000 nmol/l). The cells were incubated for 3 d at 37°C and then assayed for viability (CellTiter 96 Assay, Promega).

In experiment [2] the test system is recombinant CLIP-170^488 binding to taxol-stabilized MTs. Nature of the experiment: CLIP-170^488 binding to taxol-stabilized MTs (specificity control). Particulars: compound B at 50 µmol/l. An excerpt:
Figure 2 Compound B prevents the recombinant Ndc80 kinetochore complex from binding to taxol-stabilized microtubules. Effect of compound B (50 µmol/l) on binding of the Ndc80^488 complex to rhodamine-labeled, taxol-stabilized MTs as assayed using inverted wide-field fluorescence microscopy. The scale bar represents 4 µm (A). Structure of compound B; 6-furan-2-yl-3-methyl-4-oxo-4,5,6,7-tetrahydro-1H-indole-2-carboxylic acid (tetrahydro-furan-2-yl)methyl ester (B). Measurement of the IC50 value of compound B using total internal reflection fluorescence microscopy. The scale bar represents 4 µm (C). Compound B (50 µmol/l) prevented MT-associating protein CLIP-170^488, used as a specificity control, from binding to taxol-stabilized MTs. The scale bar represents 4 µm (D). […] The scale bar represents 4 µm (E).
A compound inhibiting the Ndc80^488 complex-MT interaction could act either against the complex or against the MTs. To probe the specificity of compound B toward the Ndc80^488 complex, we examined its ability to inhibit MT binding of recombinant CLIP-170^488, a MT plus-end tracking protein.

`CCSCCOC(=O)c1[nH]c2c(c1C)C(=O)C[C@@H](c1ccco1)C2` [A8]: the half-inhibitory concentration (IC50) in experiment [1] amounted to 25 nM. For `Cc1c(C(=O)OCC2CCCO2)[nH]c2c1C(=O)CC(c1ccco1)C2` (centres unmarked) [compound B, 6-furan-2-yl-3-methyl-4-oxo-4,5,6,7,-tetrahydro-1H-indole-2-carboxylic acid tetrahydro-furan-2-ylmethyl ester], in experiment [2], the “Effect on binding of CLIP-170^488 to taxol-stabilized MTs” value was “prevented”.
